Experiment in all cases: growth of human tumour cells (NCI), 48 h
Test [1] deals with HCC-2998 colon.
For test [2], the system named is RXF 393 renal.
Test [3] has as its system SK-MEL-28 melanoma.
The subject of test [4] is RPMI-8226 leukemia.

Molecules are shown by their SMILES.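 Growth conditions: 96-well plates. Treatment: test compound, 48 hours, 5 concentrations. Analysis: linear interpolation between bracketing concentrations; unreached endpoints set to highest concentration. GI50 is the concentration that inhibits growth by half. TGI marks complete inhibition of growth.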

Consider `Cc1cc(-c2nc3cc(F)c(F)cc3s2)ccc1N`, for which the TGI in test [1], in test [2], in test [3] and in test [4] was above 100 µM throughout.
Take `CC1Cc2cc(O)ccc2C2[C@@H]1C1CC[C@H](O)[C@@]1(C)C[C@@H]2O[N+](=O)[O-]` (stereo partly drawn): the TGI in test [1] amounted to 22 µM; in test [2] it was 29.3 µM; in test [3], 81.8 µM; in test [4] it was 50.2 µM.
Turning to `Cn1cnc([N+](=O)[O-])c1Sc1nc(N)nc2c1ncn2Cc1ccccc1`, the TGI in test [1] came out at 29.4 µM; in test [2], 43.7 µM; in test [3], 42.5 µM; in test [4], 72.5 µM.
Consider `CCc1n[nH]c(=O)n1NC(=O)/C=C\C(=O)O`, for which the TGI in test [1] and in test [2] was above 100 µM throughout.
For `C[C@@H]1OC(=O)/C(=C\N(C)C)[C@H]2CC(=O)N(CCc3cn(S(=O)(=O)C(F)(F)F)c4ccccc34)C[C@H]12`, the TGI in test [1], in test [2], in test [3] and in test [4] was above 100 µM each time.
As for `Cc1cc(C#N)c(Nc2c(C)cccc2[N+](=O)[O-])s1`, the TGI in test [1] is above 100 µM; in test [2], 55.4 µM; in test [3] it was above 100 µM; in test [4] it was above 100 µM.
`CC(C)(C)NC1C2CCC(C)(C1O)C2(C)C` (stereo not drawn): the TGI in test [1], in test [2], in test [3] and in test [4] was above 100 µM throughout.
Consider `CCOC1SC(SC)=NN1C(=O)C(OC(C)=O)C(OC(C)=O)C(OC(C)=O)C(OC(C)=O)C(=O)N1N=C(SC)SC1OCC` (stereo not drawn), for which the TGI in test [1], in test [2], in test [3] and in test [4] was above 100 µM throughout.
Regarding `C=C(C(=O)O)[C@@H]1C[C@@H]2O[C@H]1CC(C)=CCC/C(C)=C/CC[C@@]2(C)O`, the TGI in test [1], in test [2], in test [3] and in test [4] was above 100 µM each time.
For the compound `CC1(C)OC(=S)N(c2ccccc2)C12C=Cc1cc3ccccc3cc1O2` (stereo not drawn), the TGI in test [1], in test [2], in test [3] and in test [4] was above 100 µM in each case.
Take `CCOP(C)(=O)C(Nc1ccc(F)cc1)c1ccc(F)cc1` (stereo not drawn): the TGI in test [1], in test [2], in test [3] and in test [4] was above 100 µM in each case.
`CCN(CC)C1=Nc2ccccc2-n2c(C)cnc2C1`: the TGI in test [1], in test [2], in test [3] and in test [4] was above 100 µM each time.
On to `Cc1ccc(C)c(NC(=O)C(Cc2c[nH]c3ccccc23)NC(=O)OCc2ccccc2)c1` (stereo not drawn), for which the TGI is 22 µM in test [2], above 100 µM in test [3] and 44 µM in test [4].
Turning to `Cc1cc2[nH]c3c(C#N)c(-c4ccccc4)c(CN4CCOCC4)c(=O)n3c2cc1C`, the TGI in test [1], in test [2], in test [3] and in test [4] was above 100 µM throughout.
Turning to `N/N=C(\C(=O)Nc1ccc([N+](=O)[O-])cc1)C(C1=Nc2cc([N+](=O)[O-])ccc2NC1)[N+](=O)[O-]` (stereo not drawn), the TGI in test [1], in test [2], in test [3] and in test [4] was above 100 µM in each case.
On to `O=C(O)C(F)(OC(F)(F)C(F)(OC(F)(F)C(F)(F)C(F)(F)F)C(F)(F)F)C(F)(F)F` (stereo not drawn), for which the TGI in test [1], in test [2], in test [3] and in test [4] was above 100 µM throughout.
For the compound `CCCCCCCCCCCCP(=O)(O)OCC(N)C(=O)O` (stereo not drawn), the TGI in test [1] was above 100 µM; in test [2] it was above 100 µM; in test [3] it was above 100 µM; in test [4], 91.9 µM.
On to `CN(C)/C=N/S(=O)(=O)c1nn2c(C=O)c(-c3ccc(-c4ccc([N+](=O)[O-])cc4)o3)nc2s1`, for which the TGI was found to be 14.7 µM in test [1], 5.04 µM in test [2], 6.22 µM in test [3] and 13.5 µM in test [4].
`Cc1cccc(NC(=S)N/N=C(/c2ccccc2)c2ccccn2)c1`: the TGI is 19.7 µM in test [1], 13.2 µM in test [2], 40.5 µM in test [3] and above 7.74 µM in test [4].
On the same counts, the results for `CP(C)(=S)P(C)(C)=S` are above 100 µM, above 100 µM, above 100 µM and above 100 µM.
On the same counts, the results for `O=C(/C(=C/c1cccs1)c1ccccc1)c1ccccc1` are above 100 µM, 18.8 µM, above 100 µM and above 100 µM.
In the case of `O=C1O[C@H]2[C@@H]3OC(=O)c4cc(O)c(O)c(O)c4-c4c(cc(O)c(O)c4O)C(=O)OC[C@H]2O[C@@H](OC(=O)c2cc(O)c(O)c(O)c2)[C@@H]3OC(=O)c2cc(O)c(O)c3c2[C@@H]2C1=CC(=O)C(O)(O)C2(O)O3` (stereo partly drawn), the TGI in test [1], in test [2], in test [3] and in test [4] was above 100 µM in each case.
With `O=C1C[C@H]2[C@H](c3ccc(Br)cc3)[C@H]3C(=O)c4ccccc4NC(=O)[C@@H]3[C@@]2(O)c2ccccc2N1`, the TGI was 30.3 µM in test [1], 26 µM in test [2], above 100 µM in test [3] and 62.4 µM in test [4].
In test [1], `CCOC(=O)c1cc(-c2ccc(Cl)cc2)c([N+](=O)[O-])n1C` registered a TGI above 10 µM.
On to `S=C1SC(c2ccc(Cl)cc2)(c2ccc(Cl)cc2)c2ccccc21`, for which the TGI in test [1], in test [2] and in test [3] was above 100 µM each time.
As for `CCCCCCCC/C=C/CCCCCCCC1CC(O)C(=O)O1` (stereo not drawn), the figures for the TGI in test [1], in test [3] and in test [4] were above 100 µM, above 100 µM and 76.7 µM, respectively.
As to `NC(CCCCNC(=O)C(Cc1ccccc1)NC(=O)OCc1ccccc1)C(=O)NC(CCCCNC(=O)C(Cc1ccccc1)NC(=O)OCc1ccccc1)C(=O)NC(CCCCNC(=O)C(Cc1ccccc1)NC(=O)OCc1ccccc1)C(=O)NC(CCCCNC(=O)C(Cc1ccccc1)NC(=O)OCc1ccccc1)C(=O)NC(CCCCNC(=O)C(Cc1ccccc1)NC(=O)OCc1ccccc1)C(=O)NC(CCCCNC(=O)C(Cc1ccccc1)NC(=O)OCc1ccccc1)C(=O)O` (stereo not drawn), the TGI in test [1], in test [3] and in test [4] was above 100 µM throughout.
Turning to `CC(NC(=O)C(N)CC(=O)O)NC(=O)N1CCCC1` (stereo not drawn), the TGI in test [1], in test [2], in test [3] and in test [4] was above 100 µM each time.
As to `CCn1cnc2c(NC(C)=O)ncnc21`, the TGI in test [1], in test [2], in test [3] and in test [4] was above 100 µM throughout.
With `CN(C(=O)c1cccs1)C(=S)N1CCN(c2ccccc2)CC1`, the TGI in test [1], in test [2], in test [3] and in test [4] was above 100 µM throughout.
Regarding `O=C(N/C(=C\c1ccccc1)C1Nc2ccccc2C(=O)O1)c1ccccc1` (stereo not drawn), the TGI in test [1] was found to be 38.6 µM; in test [2], 63 µM; in test [3] it was 53.2 µM; in test [4] it was 63.2 µM.
On the same counts, the results for `CC(=O)Nc1ccc(-c2nc3ccccc3s2)cc1O` are above 100 µM, above 100 µM, above 100 µM and above 100 µM.
Turning to `CC(=O)O[C@H]1[C@@H](N2CCN(C)CC2)C[C@H]2[C@@H]3CC=C4C[C@@H](N5CCCC5)CC[C@]4(C)[C@H]3CC[C@@]21C`, the TGI in test [1] was above 100 µM; in test [2], 71.8 µM; in test [3] it was 96.9 µM; in test [4] it was 44.2 µM.
On the same counts, the results for `COc1cc(OC)nc(Nc2c(C#N)c3nc4ccccc4n3c3ccccc23)n1` are above 100 µM, 99.2 µM, above 100 µM and above 100 µM.
On to `[N-]=[N+]=NC1=C(c2ccccc2)C(=O)c2cccc3cccc1c23`, for which the TGI in test [1] was above 100 µM; in test [2] it was 60.6 µM; in test [3], above 100 µM; in test [4], above 100 µM.
Take `CC1(C)O[C@@H]2[C@@H]3OC(=O)C[C@@H]3[C@@H](COCc3ccccc3)[C@@H]2O1`: the TGI in test [1], in test [2], in test [3] and in test [4] was above 100 µM in each case.
On to `COC(=O)CCC(=O)c1ccc2c(c1)CC1(C2)Cc2ccc3c(c2C1)CCCC3=O` (stereo not drawn), for which the TGI was above 93.9 µM in test [1], 97.4 µM in test [2] and above 100 µM in test [3].
In the case of `Cc1nn(C)c2c1C(=O)N(C)CC(=O)N2C`, the TGI in test [1], in test [2], in test [3] and in test [4] was above 100 µM each time.
In the case of `O=C(O)c1cc(Sc2ccc([N+](=O)[O-])c(C(=O)O)c2)ccc1[N+](=O)[O-]`, the GI50 in test [1] was above 100 µM. In addition, the TGI in test [1], in test [2], in test [3] and in test [4] was above 100 µM in each case.
Turning to `COc1cccc(-n2c(N)c(-c3nc4cc(C(F)(F)F)ccc4s3)c3ccc([N+](=O)[O-])cc3c2=O)c1`, the TGI in test [1], in test [3] and in test [4] was above 100 µM in each case.
For `COc1ccc(-c2nnc(CCCCCCCCc3nnc(-c4ccc(OC)cc4)o3)o2)cc1`, the TGI in test [1] and in test [3] was above 100 µM throughout.
As to `Cc1nc2c(ncn2CCO)c(=O)[nH]1`, the TGI in test [1], in test [2] and in test [3] was above 100 µM in each case.
As for `C/C(=N\Nc1nc2ccccc2o1)c1ccncn1`, the results for the TGI in test [1] and in test [3] were 29 µM and above 100 µM, respectively.
With `CCCCOC(=O)C1CN2C(=NC1(C(F)(F)F)C(F)(F)F)Sc1ccccc12` (stereo not drawn), the values for the TGI in test [2], in test [3] and in test [4] were 63.4 µM, above 100 µM and above 100 µM, respectively.
Take `Cc1c2cccc-2c(OCCO)cc2c1[nH]c1ccccc12`: the TGI in test [1] was determined as 12.1 µM; in test [2] it was 5.37 µM; in test [3] it was 20.6 µM; in test [4] it was 8.52 µM.
With `CC[C@@]1(O)C(=O)OCc2c1cc1n(c2=O)Cc2c-1nc1ccccc1c2/C=N\NC(=O)C(C)N` (stereo partly drawn), the TGI was above 21.1 µM in test [1], 9.18 µM in test [2] and above 100 µM in test [3].
For `COC(Cc1ccccc1)NC(C)=O` (stereo not drawn), the TGI in test [1], in test [2], in test [3] and in test [4] was above 100 µM in each case.
Consider `COC(=O)[C@@H]1C[C@]2(CC=C(C)C)c3ccccc3N(S(=O)(=O)c3ccccc3)[C@@H]2N1C(=O)OC`, for which the TGI is 40.1 µM in test [1], 43.9 µM in test [2], above 100 µM in test [3] and 42.6 µM in test [4].
In the case of `CC(=O)OC1COC(Nn2c(=O)[nH]c3ccccc3c2=O)C(OC(C)=O)C1OC(C)=O` (stereo not drawn), the TGI in test [3] and in test [4] was above 100 µM each time.
Turning to `CC(C)=CCC[C@H](C)[C@H]1CC[C@@H](C)c2cc(O)c(C)cc21`, the TGI stood at 33.7 µM in test [1], 42.2 µM in test [2], 36.8 µM in test [3] and 56.2 µM in test [4].
As for `CN1CCN(c2ccc(-n3cc(C(=O)O)c(=O)c4cc(F)c(N5CCN(C)CC5)cc43)nc2)CC1`, the TGI in test [2], in test [3] and in test [4] was above 100 µM throughout.
Consider `C[C@]12CCC(=O)C=C1CC[C@@H]1C2CC[C@]2(C)Nc3c(ncn3-c3ccc(F)cc3)CC12` (stereo partly drawn), for which the TGI is 88.8 µM in test [1], 30.6 µM in test [2] and above 100 µM in test [3].
With `N#CC(c1cc(Cl)ncn1)c1nc2ccccc2s1` (stereo not drawn), the TGI in test [2] is 42.5 µM; in test [3], 42.9 µM; in test [4], above 100 µM.
Turning to `c1ccc2c(c1)C(=Nc1ccc(N=C3c4ccccc4-c4ccccc43)cc1)c1ccccc1-2`, the TGI in test [1], in test [2] and in test [4] was above 100 µM in each case.

For the origin of these results see PubChem BioAssay (NCI).
